Test results: PubChem BioAssay AID330 (DTP/NCI, 2004)
Several values for one entry are separate records, joined by “and”; a condition that tells them apart may be missing. Identical values can stand only once. Inconclusive results and toxic doses are left out. How the source made its calls: active means survival T/C of 150% or more; inactive means T/C below 125% in these data.

System: P388 leukemia ip, CD2F1 mice, survival T/C
Experiment: NCI In Vivo Anticancer Drug Screen. Data for tumor model P388 Leukemia (intraperitoneal) in CD2F1 (CDF1) mice
Conditions: endpoint: median survival time, higher = longer survival
Summary of the method: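 Mice carrying the transplanted tumor received test compound or vehicle. Survival was recorded in each group, and the value is the treated-group measurement divided by that of the vehicle-treated control group.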

[1] = dose: 100.0 mg/kg/injection, schedule: Q01DX001 (ip), vehicle: Klucel (hydroxypropylcellulose) (HPC)
[2] = dose: 200.0 mg/kg/injection, schedule: Q01DX001 (ip), vehicle: Klucel (hydroxypropylcellulose) (HPC)
[3] = dose: 400.0 mg/kg/injection, schedule: Q01DX001 (ip), vehicle: Klucel (hydroxypropylcellulose) (HPC)
[4] = dose: 50.0 mg/kg/injection, schedule: Q01DX009 (ip), vehicle: saline with Tween-80
[5] = dose: 100.0 mg/kg/injection, schedule: Q01DX009 (ip), vehicle: saline with Tween-80
[6] = dose: 200.0 mg/kg/injection, schedule: Q01DX009 (ip), vehicle: saline with Tween-80
[7] = dose: 100.0 mg/kg/injection, schedule: Q01DX009 (ip), vehicle: saline
[8] = dose: 200.0 mg/kg/injection, schedule: Q01DX009 (ip), vehicle: saline
[9] = dose: 6.25 mg/kg/injection, schedule: Q01DX009 (ip), vehicle: Klucel (hydroxypropylcellulose) (HPC)
[10] = dose: 12.5 mg/kg/injection, schedule: Q01DX009 (ip), vehicle: Klucel (hydroxypropylcellulose) (HPC)
[11] = dose: 25.0 mg/kg/injection, schedule: Q01DX009 (ip), vehicle: Klucel (hydroxypropylcellulose) (HPC)
[12] = dose: 50.0 mg/kg/injection, schedule: Q01DX009 (ip), vehicle: Klucel (hydroxypropylcellulose) (HPC)
[13] = dose: 100.0 mg/kg/injection, schedule: Q01DX009 (ip), vehicle: Klucel (hydroxypropylcellulose) (HPC)
[14] = dose: 25.0 mg/kg/injection, schedule: Q01DX005 (ip), vehicle: saline with Tween-80
[15] = dose: 50.0 mg/kg/injection, schedule: Q01DX005 (ip), vehicle: saline with Tween-80
[16] = dose: 100.0 mg/kg/injection, schedule: Q01DX005 (ip), vehicle: saline with Tween-80
[17] = dose: 200.0 mg/kg/injection, schedule: Q01DX005 (ip), vehicle: saline with Tween-80
[18] = dose: 200.0 mg/kg/injection, schedule: Q01DX009 (ip), vehicle: Klucel (hydroxypropylcellulose) (HPC)
[19] = dose: 60.0 mg/kg/injection, schedule: Q01DX005 (ip), vehicle: saline with Tween-80
[20] = dose: 120.0 mg/kg/injection, schedule: Q01DX005 (ip), vehicle: saline with Tween-80

Measured: T/C

COC(=O)C1CCC(c2ccccc2)(c2ccccc2)C1O.COC(=O)C1CCC(c2ccccc2)(c2ccccc2)C1O.[Cu] (stereo not given)
inactive: [1] 100 % of control | [2] 100 % of control | [3] 100 % of control

CC(=O)Nc1nc(C)c(CCCOc2ccc([N+](=O)[O-])cc2)c(=O)[nH]1
inactive: dose: 60.0 mg/kg/injection, schedule: Q01DX005 (ip), vehicle: Klucel (hydroxypropylcellulose) (HPC) 86 % of control | dose: 120.0 mg/kg/injection, schedule: Q01DX005 (ip), vehicle: Klucel (hydroxypropylcellulose) (HPC) 86 % of control

O=c1[nH]c(=O)c2nc(-c3ccc4c(c3)OCO4)cnc2[nH]1
inactive: dose: 100.0 mg/kg/injection, schedule: Q04DX003 (ip), vehicle: lactic acid 93 % of control | dose: 200.0 mg/kg/injection, schedule: Q04DX003 (ip), vehicle: lactic acid 87 % of control

C=C1C(=O)O[C@H]2C[C@@H]1C(=O)C/C(C)=C/CC/C(C)=C/CC[C@@]2(C)OCSC
inactive: dose: 8.0 mg/kg/injection, schedule: Q01DX009 (ip), vehicle: Klucel (hydroxypropylcellulose) (HPC) 116 % of control | dose: 16.0 mg/kg/injection, schedule: Q01DX009 (ip), vehicle: Klucel (hydroxypropylcellulose) (HPC) 103 % of control | dose: 32.0 mg/kg/injection, schedule: Q01DX009 (ip), vehicle: Klucel (hydroxypropylcellulose) (HPC) 111 % of control | dose: 64.0 mg/kg/injection, schedule: Q01DX009 (ip), vehicle: Klucel (hydroxypropylcellulose) (HPC) 92 % of control

ClC1=CN(C2=NCCC2)CC1
inactive: dose: 6.25 mg/kg/injection, schedule: Q01DX009 (ip), vehicle: saline with Tween-80 101 % of control | dose: 12.5 mg/kg/injection, schedule: Q01DX009 (ip), vehicle: saline with Tween-80 103 % of control | dose: 25.0 mg/kg/injection, schedule: Q01DX009 (ip), vehicle: saline with Tween-80 97 % of control

CCOC(=O)C(=CNC(C)(C)C)C(=O)OCC
inactive: [4] 106 % of control | [5] 115 % of control | [6] 100 % of control

O=C(/C=C/C=C/c1ccccc1)c1ccco1
inactive: [4] 94 % of control | [5] 94 % of control | [6] 99 % of control

CC[N+](C)(CC)CCl
inactive: dose: 7.5 mg/kg/injection, schedule: Q01DX005 (ip), vehicle: saline 104 % of control | dose: 15.0 mg/kg/injection, schedule: Q01DX005 (ip), vehicle: saline 99 % of control

c1ccc2c(c1)Sc1cnccc1N2CC1CO1 (stereo not given)
inactive: [7] 109 % of control | [8] 100 % of control | dose: 400.0 mg/kg/injection, schedule: Q01DX009 (ip), vehicle: saline 100 % of control

CCOC(=O)CNCc1ccc(Cl)c(Cl)c1
inactive: [9] 100 % of control | [10] 103 % of control and 97 % of control | [11] 100 % of control | [12] 108 % of control and 94 % of control | [13] 104 % of control

CCOC(=O)CC1(C)SCCN1C(=O)OCC (stereo not given)
inactive: [14] 102 % of control | [15] 98 % of control | [16] 91 % of control | [17] 105 % of control

Cc1cccc(N=Nc2ccc(N=Nc3c(O)ccc4ccccc34)cc2C)c1
inactive: [12] 97 % of control | [13] 100 % of control | [18] 100 % of control

C=CCCC(=O)SC(C)(C)C
inactive: dose: 100.0 mg/kg/injection, schedule: Q04DX003 (ip), vehicle: Klucel (hydroxypropylcellulose) (HPC) 112 % of control | dose: 200.0 mg/kg/injection, schedule: Q04DX003 (ip), vehicle: Klucel (hydroxypropylcellulose) (HPC) 110 % of control | dose: 400.0 mg/kg/injection, schedule: Q04DX003 (ip), vehicle: Klucel (hydroxypropylcellulose) (HPC) 103 % of control

NC(N)=N/N=C/c1c2ccccc2cc2ccccc12
inactive: dose: 6.25 mg/kg/injection, schedule: Q01DX005 (ip), vehicle: saline with Tween-80 100 % of control and 101 % of control | dose: 12.5 mg/kg/injection, schedule: Q01DX005 (ip), vehicle: saline with Tween-80 107 % of control and 109 % of control and 121 % of control | [14] 104 % of control and 113 % of control and 121 % of control

CCSC(C)(C)C
inactive: dose: 50.0 mg/kg/injection, schedule: Q01DX009 (ip), vehicle: saline 102 % of control | [7] 100 % of control | [8] 100 % of control

COc1cc(OC)c(-c2cc3ccc(OCc4ccccc4)cc3oc2=O)cc1OC
inactive: [1] 102 % of control | [2] 105 % of control | [3] 94 % of control

COC(=O)c1cc(-c2ccccn2)[nH]c(=O)c1C#N
inactive: dose: 60.0 mg/kg/injection, schedule: Q01DX005 (ip), vehicle: saline 104 % of control | dose: 120.0 mg/kg/injection, schedule: Q01DX005 (ip), vehicle: saline 100 % of control | dose: 240.0 mg/kg/injection, schedule: Q01DX005 (ip), vehicle: saline 97 % of control

[O-]c1ccc[n+]2c1sc1ncccc12 (tested in a mixture with another compound)
inactive: [15] 107 % of control | [16] 107 % of control | [17] 105 % of control

Cc1cc(S(=O)(=O)c2ccccc2C(=O)O)nc2c1ccc1ccccc12
inactive: dose: 50.0 mg/kg/injection, schedule: Q01DX005 (ip), vehicle: Klucel (hydroxypropylcellulose) (HPC) 105 % of control | dose: 100.0 mg/kg/injection, schedule: Q01DX005 (ip), vehicle: Klucel (hydroxypropylcellulose) (HPC) 103 % of control | dose: 200.0 mg/kg/injection, schedule: Q01DX005 (ip), vehicle: Klucel (hydroxypropylcellulose) (HPC) 103 % of control

COC(=O)C1CC(OC(C)=O)C2OC(C)(C)OC2C1OC(C)=O (stereo not given)
inactive: [12] 100 % of control | [13] 99 % of control | [18] 100 % of control

O=c1n2ccccc2nc2nc3ccccc3n12
inactive: [19] 86 % of control | [20] 86 % of control

c1ccc2c(c1)c1ccccc1c1n[se]nc21
inactive: dose: 15.0 mg/kg/injection, schedule: Q01DX005 (ip), vehicle: saline with Tween-80 90 % of control | dose: 30.0 mg/kg/injection, schedule: Q01DX005 (ip), vehicle: saline with Tween-80 90 % of control | [19] 98 % of control

O=C(CC(=O)c1ccc(Cl)c(Cl)c1)Cc1ccc2ccccc2n1
inactive: [19] 90 % of control | [20] 97 % of control | dose: 240.0 mg/kg/injection, schedule: Q01DX005 (ip), vehicle: saline with Tween-80 88 % of control

CN1C(c2ccccc2)C2CCCC(C1c1ccccc1)[N+](C)(C)C2 (stereo not given)
inactive: dose: 100.0 mg/kg/injection, schedule: Q04DX003 (ip), vehicle: suspension in saline 104 % of control | dose: 200.0 mg/kg/injection, schedule: Q04DX003 (ip), vehicle: suspension in saline 100 % of control | dose: 400.0 mg/kg/injection, schedule: Q04DX003 (ip), vehicle: suspension in saline 100 % of control

CCCS(=O)(=O)CCC(=O)c1ccccc1
inactive: dose: 100.0 mg/kg/injection, schedule: Q04DX002 (ip), vehicle: saline 101 % of control | dose: 200.0 mg/kg/injection, schedule: Q04DX002 (ip), vehicle: saline 107 % of control | dose: 400.0 mg/kg/injection, schedule: Q04DX002 (ip), vehicle: saline 102 % of control

O=C(O)CC(=O)N=c1snc(Nc2ccccc2)n1-c1ccccc1
inactive: [9] 101 % of control | [10] 102 % of control | [11] 99 % of control

Cc1ccc(S(=O)(=O)N=Nc2c(O)c3ccccc3c3ccccc23)cc1
inactive: [15] 103 % of control | [16] 103 % of control | [17] 100 % of control

COC1C/C(=N\OC(C)=O)C2OC(c3ccccc3)OCC2O1 (stereo not given)
inactive: [4] 93 % of control | [5] 96 % of control | [6] 95 % of control

Cc1cc2nncn2c2nnnn12
inactive: dose: 6.25 mg/kg/injection, schedule: Q01DX005 (ip), vehicle: water 101 % of control | dose: 12.5 mg/kg/injection, schedule: Q01DX005 (ip), vehicle: water 102 % of control | dose: 25.0 mg/kg/injection, schedule: Q01DX005 (ip), vehicle: water 108 % of control | dose: 50.0 mg/kg/injection, schedule: Q01DX005 (ip), vehicle: water 108 % of control | dose: 100.0 mg/kg/injection, schedule: Q01DX005 (ip), vehicle: water 105 % of control | dose: 200.0 mg/kg/injection, schedule: Q01DX005 (ip), vehicle: water 101 % of control
